Entries after “also recorded” stand apart in the source; their conditions may differ. Each block holds one molecule with its values, some of them ahead of it.
Legend:
[1] = Surface plasmon resonance, binding to PC/PIP2 liposomes on sensor chip; settings: for Kd: SPR equilibrium binding, PC/PIP2 (20∶1) liposomes, 25°C, HBSS, read-out: equilibrium dissociation constant KD; for binding to PIP2 containing liposomes (in words): SPR, PC/PIP2 liposomes
Procedure: All SPR measurements were performed at 25°C using a liposome-coated NLC chip in aProteOn XPR36 Protein Interaction Array System (Bio-rad, Hercules, CA, USA). […] Lipid solution (10 mg/ml) in HBSS was mixed with 8 µM oligonucleotide 5′-[…]-3′, modified at the 3′ end with cholesterol (Generi-Biotech, Hradec Kralove, Czech Republic), and the mixture was extruded using a LiposoFast Basic apparatus (Avestin Europe, Mannheim, Germany) with a polycarbonate membrane with a 100-nm pore diameter (Avestin Europe, Mannheim, Germany). The lipid/DNA ratio was 1200∶1. The vesicles were then incubated with 8 µM anti-sense oligonucleotide 5′-[…]-3′, modified at the 5′ end with biotin (Generi-Biotech, Hradec Kralove, Czech Republic), and washed by centrifugation (50,000 g) for 30 min at 4°C. The vesicles were diluted to a final concentration of 1 mg/ml in HBSS and immobilized on the streptavidin-coated NLC chip (Bio-rad, Hercules, CA, USA) surface at a flow rate of 25 µl/min for 10 min to give ∼800 −1500 resonance units (RU). All SPR measurements were carried out in HBSS at a flow rate of 30 µl/min for both the association and dissociation phase of the sensograms. For determining equilibrium binding, the association phases of five different concentrations of each protein were brought to near-equilibrium values (Req). Surfaces were typically regenerated with 50 µl of 1 M NaCl and 20 mM glycin buffer, pH 3.5. The sensograms were corrected for sensor background by interspot referencing (the sites within the 6×6 array which are not exposed to ligand immobilization but are exposed to analyte flow), and double referenced by subtraction of the analyte using a “blank” injection. Assuming a Langmuir-type binding between the protein (P) and protein binding sites (S) on vesicles (i.e. P + S ↔ PS), Req values were then plotted versus protein concentration (P0), and the KD value was determined by nonlinear least-squares analysis of the binding isotherm using the equation Req = Rmax/(1+KD/P0).

CaM = test system: CaM; set-up: method as in PMID 18755153; settings: TRPV1-CT fusion protein mutants; cited from earlier work
[2] = Control SPR with liposomes containing only phosphatidylcholine; format: binding; settings: liposomes not containing PIP2
Procedure: All SPR measurements were performed at 25°C using a liposome-coated NLC chip in aProteOn XPR36 Protein Interaction Array System (Bio-rad, Hercules, CA, USA). Liposomes (100 nm in diameter) were made from 1,2-dimyristoyl-sn-glycero-3-phosphocholine (PC) and L-α-phosphatidylinositol-4,5-bisphosphate (PIP2) (Avanti Lipids, Alabaster, AL, USA) at a molar ratio of 20∶1 (PC/PIP2). Lipid solution (10 mg/ml) in HBSS was mixed with 8 µM oligonucleotide 5′-[…]-3′, modified at the 3′ end with cholesterol (Generi-Biotech, Hradec Kralove, Czech Republic), and the mixture was extruded using a LiposoFast Basic apparatus (Avestin Europe, Mannheim, Germany) with a polycarbonate membrane with a 100-nm pore diameter (Avestin Europe, Mannheim, Germany). The lipid/DNA ratio was 1200∶1. The vesicles were then incubated with 8 µM anti-sense oligonucleotide 5′-[…]-3′, modified at the 5′ end with biotin (Generi-Biotech, Hradec Kralove, Czech Republic), and washed by centrifugation (50,000 g) for 30 min at 4°C. […] Assuming a Langmuir-type binding between the protein (P) and protein binding sites (S) on vesicles (i.e. P + S ↔ PS), Req values were then plotted versus protein concentration (P0), and the KD value was determined by nonlinear least-squares analysis of the binding isotherm using the equation Req = Rmax/(1+KD/P0).

[3] = Steady state fluorescence anisotropy binding assay with PIP2-Bodipy; settings: for Kd: PIP2-Bodipy 10 nM titrated with protein or peptide, room temperature, read-out: equilibrium dissociation constant KD
Procedure: (§1) Peptides were dissolved in 50 mM Tris-HCl (pH 7.5), 100 mM NaCl buffer and were used for measurements of fluorescence anisotropy. Steady-state fluorescence anisotropy measurements were performed in an ISS Photon Counting Steady-State Spectrofluorimeter (ISS PC1TM) at room temperature with a PIP2-Bodipy® FL C5, C6-PtdIns(4,5)P2 molecular probe (Invitrogen, cat. n. B22627, Figure S3A), hereafter denoted as PIP2-Bodipy and the control experiment was done with 16∶0-06∶0 NBD PC 1-palmitoyl-2-{6-[(7-nitro-2-1,3-benzoxadiazol-4-yl)amino]hexanoyl}-sn-glycero-3-phosphocholine in chloroform (NBD-PC), (Avanti Polar Lipids, Inc. Cat. n. 810130C, Figure S3B) The PIP2-Bodipy probe was diluted in deionized H2O. The final concentration of the fluorescently labeled probe in the measuring buffer in the cuvette was 10 nM and increasing amounts of peptides and fusion protein TRPV1 respectively were titrated into the cuvette. PIP2-Bodipy excitation and emission wavelengths were set to 500 nm and 512 nm and for NBD – PC 460 nm and 534 nm respectively. At each peptide concentration, steady-state fluorescence anisotropy was recorded. The fraction of TRPV1s regions or their mutants bound to fluorescent probe was determined from the anisotropy changes using Eq. (1), where FB is the fraction bound, rmin and rmax are the anisotropies of the free and bound PIP2-Bodipy with TRPV1-CT, pTRPV1 regions or its mutants, robs is the observed anisotropy, and Q is the ratio of the intensities of the free and bound protein (fmax/fmin). All experiments were carried out in at least triplicate. [drawing 1] (1)
The FB was plotted against the TRPV1 peptides and fusion proteins concentration respectively and fitted using Eq. (2) to determine the equilibrium dissociation constant (KD). Non-linear data fitting was performed using the package SigmaPlot 2000 (6.1) SPSS Inc. P1 is the concentration of PIP2-Bodipy and P2 is the concentration of TRPV1 fusion protein or TRPPV1 synthetic peptides. [drawing 2] (2)

[4] = Control steady-state fluorescence anisotropy with NBD-PC; format: binding; settings: NBD-PC 10 nM
Procedure: as §1, with “PIP2-Bodipy excitation and emission wavelengths were set to 500 nm and 512 nm and for NBD – PC 460 nm and 534 nm respectively.” left out, “All experiments were carried out in at least triplicate. [drawing 1] (1)” left out

[5] = ELISA, influence of liposome composition on binding to immobilized TRPV1-CT; settings: liposomes of different composition
Procedure: The lipids L-α-phosphatidylinositol-4,5-bisphosphate (PIP2), 1,2-dimyristoyl-sn-glycero-3- Phosphatidylserine (PS), 1,2-dimyristoyl-sn-glycero-3-phosphocholine (PC) and 1,2-dimyristoyl-sn-glycero-3- Phosphatidylethanolamine (PE) were obtained from Avanti Polar Lipis, Inc. A stock solution of each lipid was prepared in chloroform, except for PIP2 stock solution, which was prepared in a chloroform:methanol (2∶1) mixture. Liposomes of the following compositions were prepared: PC, PC/PIP2 97/3%, PC/PIP2 90/10%, PC/PIP2/PS 70/10/20%, PC/PIP2/PS/PE 40/10/20/30%, PC/PIP2/PE 70/10/20%, PC/PIP2/PE 77/3/20%, PC/PE/PS 50/30/20% by mixing appropriate volumes of the stock solutions. After being dried under an N2 stream, lipid films were hydrated with 1× HBSS buffer containing 8 µM oligonucleotide 5′-[…]-3′, modified at the 3′ end with cholesterol (Generi-Biotech, Hradec Kralove, Czech Republic)- followed by extrusion 20 times through a polycarbonate membrane with a 100-nm pore diameter (Avestin Europe, Mannheim, Germany). Finally 8 µM complementary oligonucleotide Biotin conjugate 5′-[…]-3′ (Generi-Biotech, Hradec Kralove, Czech Republic) was added to the liposome mixture. A 20-min incubation was followed by centrifugation and washing steps to remove the unbound oligonucleotide-Biotin conjugate.
96-well micro titer plates were used. […] Absorbance was read at 490 nm using a micro plate reader.

Molecule: K770A/R785A: double alanine mutant of TRPV1-CT (712–838) thioredoxin fusion protein
Kd [1]: 5.8 ± 0.8 µM | binding to PIP2 containing liposomes (in words) [1]: suppressed this interaction partially

Molecule: R771A/R778A: double alanine mutant of TRPV1-CT (712–838) thioredoxin fusion protein
Kd [1]: > 150 µM | binding to PIP2 containing liposomes (in words) [1]: total loss of binding affinity; also recorded: avoided PIP2 binding totally

Molecule: R771A/R781A: double alanine mutant of TRPV1-CT (712–838) thioredoxin fusion protein
Kd [1]: 33.5 ± 11.7 µM | binding to PIP2 containing liposomes (in words) [1]: suppressed this interaction partially

Molecule: TRPV1-CT: rat TRPV1 C-tail amino acids 712–838 expressed in E. coli as fusion protein with thioredoxin and 6× His tags
interaction with liposomes containing only PC (in words) [2]: just a weak interaction was detected | Kd [1]: 3 ± 0.4 µM | SPR binding response ([1]; protein washed over PC/PIP2 liposome chip after regeneration step): approx. 1000 RU | Kd ([3]; listed as WT TRPV1-CT): 3.5 ± 0.9 µM | Kd [3]: 3.48 µM | interaction with NBD PC (in words) [4]: no interaction | selectivity for PIP2 over other lipids (in words) [5]: modest selectivity for PIP2 over other used lipids

B2: K770A/R781A/R785A: triple alanine mutant of TRPV1-CT (712–838) thioredoxin fusion protein (protein, UniProt O35433 712-838, looked up, variant K770A R781A R785A)
chain: FLKCMRKAFRSGKLLQVGFTPDGKDDYRWCFRVDEVNWTTWNTNVGIINEDPGNCEGVARTLSFSLRSGAVSGANWKNFALVPLLRDASTRDRHATQQEEVQLKHYTGSLKPEDAEVFKDSMVPGEK
modifications: thioredoxin fusion, His tag
notes: triple alanine mutant of TRPV1-CT (712–838) thioredoxin fusion protein
Kd [1]: 3.6 ± 0.5 µM

The next lines start with results.

binding to PIP2 containing liposomes (in words) [1]: preserves its binding ability to PIP2
Molecule: R771A: single alanine mutant of TRPV1-CT (712–838) thioredoxin fusion protein
CaM binding (in words) (CaM): significantly inhibits the CaM binding

Kd [1]: > 150 µM
Molecule: R778A: single alanine mutant of TRPV1-CT (712–838) thioredoxin fusion protein
CaM binding (in words) (CaM): did not prevent CaM binding | binding to PIP2 containing liposomes (in words) [1]: total loss of binding affinity; also recorded: inhibited the PIP2 binding

Kd [1]: 9.1 ± 3.8 µM
Molecule: R781A: single alanine mutant of TRPV1-CT (712–838) thioredoxin fusion protein

binding to PIP2-Bodipy (in words) ([3]; PIP2-Bodipy 10 nM): no thioredoxin–PIP2 binding
Molecule: thioredoxin: fusion tag protein titrated alone as control [reference compound]

Kd [1]: > 150 µM
B1: K770A/R778A/R785A: triple alanine mutant of TRPV1-CT (712–838) thioredoxin fusion protein (protein, UniProt O35433 712-838, looked up, variant K770A R778A R785A)
chain: FLKCMRKAFRSGKLLQVGFTPDGKDDYRWCFRVDEVNWTTWNTNVGIINEDPGNCEGVARTLSFSLASGRVSGANWKNFALVPLLRDASTRDRHATQQEEVQLKHYTGSLKPEDAEVFKDSMVPGEK
modifications: thioredoxin fusion, His tag
notes: as for B2
binding to PIP2 containing liposomes (in words) [1]: total loss of binding affinity; also recorded: avoided PIP2 binding totally

From PMC3485206, “Integrative Binding Sites within Intracellular Termini of TRPV1 Receptor” (PLoS ONE, 2012)
